Experimental data published in patent US20190117675A1, “Compositions And Methods To Treat And/Or Prevent Vision Disorders Of The Lens Of The Eye” (Helix Holding Company, priority 2014, published 2019).
“Also recorded” adds a separate entry of the source.

Key:
[1] = system: aA-crystallin-Y118D and aB-crystallin-R120G; assay: Dissolving of accumulated crystal protein in cells carrying two crystallin mutant plasmids; type: cell-based; details: 10 uM, compared with 1% DMSO solution
Procedure: FIG. 13. Two mutant crystal proteins were introduced into cells. The accumulated crystal protein were treated by adding different agents.
Cyclopentanoperhy drophenanthrene compounds of the present invention refers to a compound containing cyclopentanoperhy drophenanthrene skeleton structure, including its derivatives. After the two crystal protein mutant plasmid aA-crystallin-Y118D and aB-crystallin-R120G were introduced into cells, we investigated the lanosterol and its derivatives as well as cholesterol (Cholesterol) for their effects on intracellular accumulation of crystal protein. Not all cyclopentanoperhy drophenanthrene compound have the same effect.

[2] = system: aggregates of various WT and mutated crystallins; assay: In vitro protein assay: dissociation of preformed crystallin aggregates (turbidity, soluble protein, EM); type: biochemical; details: 37° C.
Procedure: Evaluation of the effect of lanosterol on the dissolution of crystallin aggregates by turbidity. Crystallin aggregates were formed by incubating 5mgml21 protein solution at 60° C. for 2 h (α-crystallins) or 37° C. for 48 h (β- and γ-crystallins) in the presence of 1M guanidine chloride. The preformed aggregates were re-suspended in PBS at a final protein concentration of 0.2 mg/ml and were treated with 500 μM sterols in 500 μM DPPC liposome and incubated at 37° C. for 24 h. Aggregates treated with 500 μM DPPC liposome only were used as the controls.
The α-crystallin aggregates were formed by incubating 5 mg/ml protein solutions at 60° C. for 48 h in the presence of 1 M guanidine chloride. The β- and γ-crystallin aggregates were prepared by incubating the protein solutions at 37° C. and pH 3 for 48 h. The preformed aggregates were re-suspended in PBS with a final protein concentration of 0.1 mg/ml. The re-suspended aggregates were treated by 50 μM sterols in 50 μM DPPS liposome and incubated at 37° C. for 144 h. The aggregates treated by 50 μM DPPS liposome were used as the controls. The supernatant and precipitation fractions were separated by centrifugation. The protein concentrations in the supernatant fraction were determined by absorbance at 280 nm and the percentages of the soluble proteins were calculated from three independent repetitions.
The recombinant his-tagged WT and mutated β- and γ-crystallin proteins were overexpressed in E. coli Rosetta and purified by Ni-NTA affinity column followed by gel filtration chromatography using the same protocol as those described elsewhere 13,14,16,18. The overexpression and purification of the non-tagged αA- and αB-crystallins were performed as described previously 19. The purity of the proteins were estimated to be above 95% as evaluated by one homogeneous band on 12.5% SDS-PAGE, 10% native-PAGE and a single peak in the size-exclusion chromatographyprofile. The protein concentration was determined according to the Bradford method by using BSA as the standard 20. All protein samples were prepared in 20 mM PBS buffer containing 150 mM NaCl, 1 mM EDTA and 1 mM DTT.
(§1) The aggregates of the WT and mutated αA- and αB-crystallin proteins were obtained by heating the proteins solutions containing 1 M guanidine chloride (ultrapure, Sigma) with a concentration of 5 mg/ml at 60° C. for 48 h. The aggregates of the WT and mutated β- and γ-crystallins were prepared by heating the protein solutions at pH 3 and 37° C. for 48 h. The formation of aggregates was confirmed by turbidity (absorbance at 400 nm) and transmission electron microscope (EM) measurements. The preformed aggregates were resuspended in 20 mM PBS with a final concentration of 0.1 mg/ml (approximately 5 μM). The resuspended aggregates were treated by 50 μM lanosterol or cholesterol in liposomes formed by 50 μM DPPS at 37° C. After 72 h treatment, the protein solutions were used for negative-stained EM observations. After 144 h incubation, the protein solutions were used for turbidity measurements and determinations of protein concentrations in the soluble fractions. The soluble proteins were determined by centrifuge the protein solutions to separate the supernatant and precipitation fractions. Then the protein concentration in the supernatant was determined by the Bradford method. The EM samples were prepared by depositing the protein solutions onto a freshly glow-discharged carbon coated copper grid. […]

[3] = system: various cataract-causing crystallin mutants; assay: Aggresome / intracellular aggregate formation of crystallin mutants in transfected cells (confocal microscopy); type: cell-based; details: 0-40 μM sterols in 2% DMSO, 2 h treatment then 12 h culture; lanosterol effect dose-dependent
Procedure: The effect of lanosterol or cholesterol on the aggresome formation of various crystallins was studied by transfecting the cells using plasmids containing various crystallin genes. The cells were cultivated for 24 h to enable efficient protein expression and aggresome formation. Then the cells were treated with 0-40 μM sterols in 2% DMSO. The cells treated with 2% DMSO were used as the control. After treatment for 2 h, the cells were moved to fresh DMEM medium containing 10% fetal bovine serum and further cultivated for 12 h. Then the cells were used for microscopy analysis.
The microscopy samples were prepared by washing the slips by phosphate buffered saline (PBS) three times. The cells were fixed with 4% paraformaldehyde for 40 min followed by three times washing with PBS. The cells were permeabilized with 0.1% Triton X-100 (Sigma) in PBS for 10 min and blocked with 5% normal goat serum in PBS for 1 h at 37° C. Immunostaining was carried out by adding mouse anti-Flag antibody (1:500) or anti-p62 antibody (1:200) in PBS buffer containing 5% normal goat serum and cultivated for 1 h at 37° C. Then the slips were washed three times with PBS, and further incubated with Alexa 649-conjugated goat anti-mouse IgG (1:250) for 1 h at ambient temperature. The nuclei were counterstained with Hoechst 33342. The mounted cells were analyzed using a Carl Zeiss LSM 710 confocal microscope.

[4] = target: T1, αB-crystallin R120G mutant (Homo sapiens, UniProt P02511, R120G); assay: Negative-stain EM of aggregates treated with sterol in liposome; type: biochemical; details: negatively stained EM
T1 construct: made in house
T1 sequence (P02511 1-175 R120G): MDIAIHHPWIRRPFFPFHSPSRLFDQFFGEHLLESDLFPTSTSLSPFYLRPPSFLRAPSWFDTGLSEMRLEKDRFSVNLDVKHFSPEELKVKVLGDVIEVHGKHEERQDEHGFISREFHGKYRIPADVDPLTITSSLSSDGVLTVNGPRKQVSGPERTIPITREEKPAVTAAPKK
Procedure: Representative negatively stained EM pictures of the aggregates of αB-crystallin R120G mutant treated by liposome, lanosterol in liposome and cholesterol in liposome, respectively. The EM samples were stained by 1.25% uranyl acetate.
Quantitative analysis was performed by calculating the number of particles with length over 50 nm from six randomly picked viewing field. Each viewing field contained 30-50 particles.
as §1, with “After 72 h treatment, the protein solutions were used for negative-stained EM observations. After 144 h incubation, the protein solutions were used for turbidity measurements and determinations of protein concentrations in the soluble fractions.” left out, “method.” for “method. The EM samples were prepared by depositing the protein solutions onto a freshly glow-discharged carbon coated copper grid.”

## CC(C)CCC[C@@H](C)[C@H]1CC[C@H]2C3=CC[C@H]4C[C@@H](O)CC[C@]4(C)[C@H]3CC[C@]12C [5α-cholest-7-en-3β-ol]
[1]
  dissolving of accumulated crystal protein: significant dissolving of the accumulated crystal protein
[1]; listed as 5a-cholest-7-en-3β-ol
  dissolving of accumulated crystal protein: significantly dissolve accumulated crystals protein

## CC(C)CCC[C@@H](C)[C@H]1CC[C@H]2[C@@H]3CC=C4C[C@@H](O)CC[C@]4(C)[C@H]3CC[C@]12C [Cholesterol, reference compound]
[2]; 500 μM sterols in 500 μM DPPC liposome, 24 h, 0.2 mg/ml protein
  dissolution of crystallin aggregates by turbidity: could not
[2]; in vitro protein assay, 50 μM sterol in 50 μM DPPS liposome
  dissociation of aggregates of various WT and mutated crystallins: could not and not
[3]
  intracellular aggregation of various cataract-causing crystallin mutants: did not affect the formation of intracellular aggregates
[4]
  dissociation of aggregates formed by αB-crystallin R120G mutant (number of particles with length over 50 nm): not
[1]
  dissolving of accumulated crystal protein: cannot effectively dissolve

## CC(C)=CCC[C@@H](C)[C@H]1CC[C@@]2(C)[C@@H]3CC[C@H]4C(C)(C)[C@@H](O)CC[C@]4(C)C3=CC[C@]12C [Parkeol]
[1]
  dissolving of accumulated crystal protein: significant dissolving of the accumulated crystal protein
[1]; listed as parkeol
  dissolving of accumulated crystal protein: significantly dissolve accumulated crystals protein

## CC(C)=CCC[C@@H](C)[C@H]1CC[C@H]2C3=C(CC[C@]12C)[C@@]1(C)CC[C@H](O)C[C@@H]1CC3 [Zymosterol, 5α-Cholesta-8,24-dien-3β-ol]
[1]
  dissolving of accumulated crystal protein: significant dissolving of the accumulated crystal protein
[1]; listed as zymosterol
  dissolving of accumulated crystal protein: significantly dissolve accumulated crystals protein

## CC(C)[C@@H](C)/C=C/[C@@H](C)[C@H]1CC[C@H]2C3=CC=C4C[C@@H](O)CC[C@]4(C)[C@H]3CC[C@]12C [ergosterol]
[1]
  dissolving of accumulated crystal protein: significantly dissolve accumulated crystals protein; also recorded: significant dissolving of the accumulated crystal protein

## CC(C)CCC[C@@H](C)[C@H]1CC[C@H]2[C@@H]3CC[C@H]4C[C@@H](O)CC[C@]4(C)[C@H]3CC[C@]12C [β-cholestanol]
[1]
  dissolving of accumulated crystal protein: significantly dissolve accumulated crystals protein; also recorded: significant dissolving of the accumulated crystal protein
